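Cultured in 96-well plates, cells were exposed to test compound for 48 hours across five concentrations. GI50 = concentration required for 50% inhibition of growth. The concentration for full growth arrest is given as TGI.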
Assays:
Test in all cases: NCI tumour cell line growth inhibition, 48 h
[1] = system: OVCAR-5 ovarian
[2] = system: SF-268 CNS
[3] = system: HOP-62 NSCLC
[4] = system: SK-MEL-28 melanoma
[5] = system: MDA-MB-435
[6] = system: HCT-116 colon
[7] = system: HL-60(TB) leukemia
[8] = system: SF-295 CNS
[9] = system: UACC-62 melanoma
[10] = system: TK-10 renal
[11] = system: BT-549 breast
[12] = system: MALME-3M melanoma
[13] = system: HCC-2998 colon
[14] = system: UO-31 renal
[15] = system: HCT-15 colon
[16] = system: ACHN renal
[17] = system: IGROV1 ovarian
[18] = system: SK-MEL-2 melanoma
[19] = system: MOLT-4 leukemia
[20] = system: NCI-H522 lung
[21] = system: CAKI-1 renal
[22] = system: KM12 colon
[23] = system: SNB-19 CNS
[24] = system: NCI/ADR-RES ovarian
[25] = system: U251 CNS
[26] = system: LOX IMVI melanoma
[27] = system: K-562 leukemia
[28] = system: UACC-257 melanoma
[29] = system: DU-145 prostate
[30] = system: OVCAR-4 ovarian
[31] = system: OVCAR-8 ovarian
[32] = system: SK-OV-3 ovarian
[33] = system: COLO 205 colon
[34] = system: A549 NSCLC
[35] = system: 786-0 renal
[36] = system: SW-620 colon
[37] = system: EKVX NSCLC
[38] = system: HOP-92 NSCLC
[39] = system: RXF 393 renal
[40] = system: NCI-H23 lung
[41] = system: PC-3 prostate
[42] = system: T-47D breast
[43] = system: A498 renal
[44] = system: NCI-H226 lung
[45] = system: SR leukemia
[46] = system: CCRF-CEM leukemia
[47] = system: SN12C renal
[48] = system: SNB-75 CNS
[49] = system: MCF7 breast
[50] = system: HT29 colon
[51] = system: RPMI-8226 leukemia
[52] = system: SF-539 CNS
[53] = system: M14 melanoma
[54] = system: NCI-H460 lung
[55] = system: OVCAR-3 ovarian
[56] = system: HS 578T breast
[57] = system: MDA-MB-231 breast
[58] = system: SK-MEL-5 melanoma

**Q.** What does the source list for `COc1ccccc1/C=C/C(=O)c1ccc(Nc2nc(Nc3ccc(F)cc3)nc(Nc3ccc(F)cc3)n2)cc1`?
**A.** GI50 [1]: 51.9 µM; TGI [1]: > 100 µM; GI50 [2]: 45.7 µM; TGI [2]: > 100 µM; GI50 [3]: 16.3 µM; TGI [3]: 77.6 µM; GI50 [4]: 33.6 µM; TGI [4]: > 100 µM; GI50 [5]: 19.4 µM; TGI [5]: 90.7 µM; GI50 [6]: 4.58 µM; TGI [6]: > 100 µM; GI50 [7]: 3.77 µM; TGI [7]: > 100 µM; GI50 [8]: 14.4 µM; TGI [8]: 98.5 µM; GI50 [9]: 55.5 µM; TGI [9]: > 100 µM; GI50 [10]: 48.6 µM; TGI [10]: > 100 µM; GI50 [11]: 13.5 µM; TGI [11]: > 100 µM; GI50 [12]: 20.1 µM; TGI [12]: 46.5 µM; GI50 [13]: 25.2 µM; TGI [13]: > 100 µM; GI50 [14]: 9.52 µM; TGI [14]: > 100 µM; GI50 [15]: 6.57 µM; TGI [15]: > 100 µM; GI50 [16]: 25.2 µM; TGI [16]: > 100 µM; GI50 [17]: 22.6 µM; TGI [17]: > 100 µM; GI50 [18]: 25.2 µM; TGI [18]: > 100 µM; GI50 [19]: 6.13 µM; TGI [19]: 97.8 µM; GI50 [20]: 23 µM; TGI [20]: > 100 µM; GI50 [21]: > 100 µM; TGI [21]: > 100 µM; GI50 [22]: 7.67 µM; TGI [22]: > 100 µM; GI50 [23]: 74.2 µM; TGI [23]: > 100 µM; GI50 [24]: 13 µM; TGI [24]: > 100 µM; GI50 [25]: 9.8 µM; TGI [25]: > 100 µM; GI50 [26]: 21.1 µM; TGI [26]: > 100 µM; GI50 [27]: 9.94 µM; TGI [27]: > 100 µM; GI50 [28]: 22 µM; TGI [28]: 66.6 µM; GI50 [29]: 55.9 µM; TGI [29]: > 100 µM; GI50 [30]: 65.3 µM; TGI [30]: > 100 µM; GI50 [31]: 9.4 µM; TGI [31]: > 100 µM; GI50 [32]: 69.7 µM; TGI [32]: > 100 µM; GI50 [33]: 2.55 µM; TGI [33]: 55.1 µM; GI50 [34]: 10.9 µM; TGI [34]: > 100 µM; GI50 [35]: 2.85 µM; TGI [35]: 14.9 µM; GI50 [36]: 6.49 µM; TGI [36]: > 100 µM; GI50 [37]: 38.1 µM; TGI [37]: > 100 µM; GI50 [38]: 7.24 µM; TGI [38]: 46.5 µM; GI50 [39]: 2.49 µM; TGI [39]: 9.37 µM; GI50 [40]: 18.9 µM; TGI [40]: > 100 µM; GI50 [41]: 5.49 µM; TGI [41]: > 100 µM; GI50 [42]: 8.01 µM; TGI [42]: > 100 µM; GI50 [43]: 13.3 µM; TGI [43]: 47.2 µM; GI50 [44]: 6.61 µM; TGI [44]: > 100 µM; GI50 [45]: 4.34 µM; TGI [45]: > 100 µM; GI50 [46]: 5.6 µM; TGI [46]: > 100 µM; GI50 [47]: 51.2 µM; TGI [47]: > 100 µM; GI50 [48]: 50.6 µM; TGI [48]: > 100 µM; GI50 [49]: 5.45 µM; TGI [49]: > 100 µM; GI50 [50]: 15.8 µM; TGI [50]: > 100 µM; GI50 [51]: 3.03 µM; TGI [51]: 16.3 µM; GI50 [52]: 1.73 µM; TGI [52]: 17.6 µM; GI50 [53]: 25.5 µM; TGI [53]: 86.7 µM; GI50 [54]: 9.38 µM; TGI [54]: > 100 µM; GI50 [55]: 22.2 µM; TGI [55]: > 100 µM; GI50 [56]: 8.29 µM; TGI [56]: 71.1 µM; GI50 [57]: 25.8 µM; TGI [57]: > 100 µM; GI50 [58]: 10.5 µM; TGI [58]: 40 µM

— PubChem BioAssay (NCI)
